Source: patent US20170189504A1, “NOVEL PEPTIDES AND COMBINATION OF PEPTIDES FOR USE IN IMMUNOTHERAPY AGAINST VARIOUS CANCERS” (immatics biotechnologies GmbH, priority 2015, published 2017)

Assays:
CD8+ T cells = assay: In vitro immunogenicity: T-cell priming with aAPCs loaded with peptide/MHC complexes and anti-CD28 antibody, pMHC multimer readout (Tables 19A, 19B); type: cell-based, human; conditions: in vitro immunogenicity of HLA class I peptides, pMHC multimer readout after priming of CD8+ T cells
Description: In an aspect, the peptides are pre-screened for immunogenicity before being included in the warehouse. By way of example, and not limitation, the immunogenicity of the peptides included in the warehouse is determined by a method comprising in vitro T-cell priming through repeated stimulations of CD8+ T cells from healthy donors with artificial antigen presenting cells loaded with peptide/MHC complexes and anti-CD28 antibody.
In order to obtain information regarding the immunogenicity of the TUMAPs of the present invention, the inventors performed investigations using an in vitro T-cell priming assay based on repeated stimulations of CD8+ T cells with artificial antigen presenting cells (aAPCs) loaded with peptide/MHC complexes and anti-CD28 antibody.
In order to perform in vitro stimulations by artificial antigen presenting cells loaded with peptide-MHC complex (pMHC) and anti-CD28 antibody, the inventors first isolated CD8+ T cells from fresh HLA-A*02 leukapheresis products via positive selection using CD8 microbeads (Miltenyi Biotec, Bergisch-Gladbach, Germany) of healthy donors obtained from the University clinics Mannheim, Germany, after informed consent.
PBMCs and isolated CD8+ lymphocytes were incubated in T-cell medium (TCM) until use consisting of RPMI-Glutamax (Invitrogen, Karlsruhe, Germany) supplemented with 10% heat inactivated human AB serum (PAN-Biotech, Aidenbach, Germany), 100 U/ml Penicillin/100 μg/ml Streptomycin (Cambrex, Cologne, Germany), 1 mM sodium pyruvate (CC Pro, Oberdorla, Germany), 20 μg/ml Gentamycin (Cambrex). 2.5 ng/ml IL7 (PromoCell, Heidelberg, Germany) and 10 U/ml IL-2 (Novartis Pharma, Nurnberg, Germany) were also added to the TCM at this step.
Generation of pMHC/anti-CD28 coated beads, T-cell stimulations and readout was performed in a highly defined in vitro system using four different pMHC molecules per stimulation condition and 8 different pMHC molecules per readout condition.
The purified co-stimulatory mouse IgG2a anti human CD28 Ab 9.3 (Jung et al., 1987) was chemically biotinylated using Sulfo-N-hydroxysuccinimidobiotin as recommended by the manufacturer (Perbio, Bonn, Germany). Beads used were 5.6 μm diameter streptavidin coated polystyrene particles (Bangs Laboratories, Illinois, USA).
pMHC used for positive and negative control stimulations were A*0201/MLA-001 (peptide […] (SEQ ID NO. 303) from modified Melan-A/MART-1) and A*0201/DDX5-001 ([…] from DDX5, SEQ ID NO. 304), respectively.
800.000 beads/200 μl were coated in 96-well plates in the presence of 4×12.5 ng different biotin-pMHC, washed and 600 ng biotin anti-CD28 were added subsequently in a volume of 200 μl. Stimulations were initiated in 96-well plates by co-incubating […] CD8+ T cells with 2×10^5 washed coated beads in 200 μl TCM supplemented with 5 ng/ml IL-12 (PromoCell) for 3 days at 37° C. Half of the medium was then exchanged by fresh TCM supplemented with 80 U/ml IL-2 and incubating was continued for 4 days at 37° C. This stimulation cycle was performed for a total of three times. For the pMHC multimer readout using 8 different pMHC molecules per condition, a two-dimensional combinatorial coding approach was used as previously described (Andersen et al., 2012) with minor modifications encompassing coupling to 5 different fluorochromes. Finally, multimeric analyses were performed by staining the cells with Live/dead near IR dye (Invitrogen, Karlsruhe, Germany), CD8-FITC antibody clone SK1 (BD, Heidelberg, Germany) and fluorescent pMHC multimers. For analysis, a BD LSRII SORP cytometer equipped with appropriate lasers and filters was used. Peptide specific cells were calculated as percentage of total CD8+ cells. Evaluation of multimeric analysis was done using the FlowJo software (Tree Star, Oreg., USA). In vitro priming of specific multimer+ CD8+ lymphocytes was detected by comparing to negative control stimulations.

HLA-A*24 = assay: MHC binding assay, UV-ligand exchange with β2m ELISA, HLA-A*24 (Table 21); parameters: species or system human; conditions: binding to HLA-A*24 ranged by peptide exchange yield (UV-ligand exchange, β2m ELISA)
Summary of the method: (§1)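 Peptide–MHC complexes made by UV-ligand exchange of a UV-cleavable peptide, diluted 100-fold and captured on streptavidin plates. Stabilized complexes detected by HRP anti-β2m ELISA (1 h, 37° C, A450). Exchange yield derived against refolded HLA-A*02:01/MLA-001 monomer standards (15-500 ng/ml).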

HLA-A*02 = assay: MHC binding assay, UV-ligand exchange with β2m ELISA, HLA-A*02 (Table 20); parameters: species or system human; conditions: binding to HLA-A*02 ranged by peptide exchange yield (UV-ligand exchange, β2m ELISA)
Summary of the method: as §1

Peptide exchange (HLA-A*24) | Peptide exchange (HLA-A*02) | Substance | Wells positive [%] (CD8+ T cells)
+++ (50%-75% = +++) |  | 196 (LYIDRPLPYL; listed as Homo sapiens) [compound 196] | ++++ (≧70% = ++++)
+++ (50%-75% = +++) |  | 268 (QYLGQIQHI; listed as Homo sapiens) [compound 268] | + (<20% = +)
+++ (50%-75% = +++) |  | 218 (YYKSTSSAF; listed as Homo sapiens) [compound 218] | + (<20% = +)
+++ (50%-75% = +++) |  | 169 (AYTLIAPNI; listed as Homo sapiens) [compound 169] | +++ (50%-69% = +++)
+++ (50%-75% = +++) |  | 200 (YYGPSLFLL; listed as Homo sapiens) [compound 200] | ++ (20%-49% = ++)
+++ (50%-75% = +++) |  | 222 (TFSVSSHLF; listed as Homo sapiens) [compound 222] | ++ (20%-49% = ++)
++++ (≧75% = ++++) |  | 167 (NYINRILKL; listed as Homo sapiens) [compound 167] | + (<20% = +)
+++ (50%-75% = +++) |  | 285 (HYPPVQVLF; listed as Homo sapiens) [compound 285] | + (<20% = +)
++++ (≧75% = ++++) |  | 159 (LYNKGFIYL; listed as Homo sapiens) [compound 159] | ++++ (≧70% = ++++)
+++ (50%-75% = +++) |  | 269 (YFIDSTNLKTHF; listed as Homo sapiens) [compound 269] | + (<20% = +)
+++ (50%-75% = +++) |  | 162 (VFTRVSSFL; listed as Homo sapiens) [compound 162] | ++ (20%-49% = ++)
++++ (≧75% = ++++) |  | 204 (TYELRYFQI; listed as Homo sapiens) [compound 204] | + (<20% = +)
+++ (50%-75% = +++) |  | 197 (EYSLFPGQVVI; listed as Homo sapiens) [compound 197] | + (<20% = +)
++++ (≧75% = ++++) |  | 168 (KYQDILETI; listed as Homo sapiens) [compound 168] | ++ (20%-49% = ++)
++++ (≧75% = ++++) |  | 158 (HYSQELSLLYL; listed as Homo sapiens) [compound 158] | + (<20% = +)
+++ (50%-75% = +++) |  | 199 (RYAEEVGIF; listed as Homo sapiens) [compound 199] | ++ (20%-49% = ++)
++++ (≧75% = ++++) |  | 173 (IYSWILDHF; listed as Homo sapiens) [compound 173] | ++ (20%-49% = ++)
+++ (50%-75% = +++) |  | 176 (EYNQWFTKL; listed as Homo sapiens) [compound 176] | +++ (50%-69% = +++)

Peptide exchange (HLA-A*24) | Peptide exchange (HLA-A*02) | Substance | Wells positive [%] (CD8+ T cells)
++++ (≧75% = ++++) |  | 166 (YYVESGKLF; listed as Homo sapiens) [compound 166] | +++ (50%-69% = +++)
++++ (≧75% = ++++) |  | 163 (DYLKGLASF; listed as Homo sapiens) [compound 163] | + (<20% = +)
++++ (≧75% = ++++) |  | 161 (IYLVSIPEL; listed as Homo sapiens) [compound 161] | ++ (20%-49% = ++)
++ (20%-49% = ++) |  | 207 (AYVVFVSTL; listed as Homo sapiens) [compound 207] | + (<20% = +)
 | +++ (50%-75% = +++) | 144 (ALLAFFPGL; listed as Homo sapiens) [compound 144] | +++ (50%-69% = +++)
 | +++ (50%-75% = +++) | 18 (ILLDLTDNRL; listed as Homo sapiens) [compound 18] | + (<20% = +)
 | +++ (50%-75% = +++) | 35 (FLLPFSTVYL; listed as Homo sapiens) [compound 35] | + (<20% = +)
++++ (≧75% = ++++) |  | 165 (DYTTWTALL; listed as Homo sapiens) [compound 165] | + (<20% = +)
 | ++++ (≧75% = ++++) | 4 (KLMPGTYTL; listed as Homo sapiens) [compound 4] | + (<20% = +)
 | +++ (50%-75% = +++) | 233 (HLFDAFVSV; listed as Homo sapiens) [compound 233] | ++ (20%-49% = ++)
 | +++ (50%-75% = +++) | 149 (ILNTHITEL; listed as Homo sapiens) [compound 149] | + (<20% = +)
 | +++ (50%-75% = +++) | 141 (FLDKVLVAA; listed as Homo sapiens) [compound 141] | + (<20% = +)
++++ (≧75% = ++++) |  | 160 (VYTLDIPVL; listed as Homo sapiens) [compound 160] | ++ (20%-49% = ++)
 | +++ (50%-75% = +++) | 251 (ALSVLRLAL; listed as Homo sapiens) [compound 251] | ++ (20%-49% = ++)
 | +++ (50%-75% = +++) | 27 (RLMEENWNA; listed as Homo sapiens) [compound 27] | +++ (50%-69% = +++)
++ (20%-49% = ++) |  | 281 (PYRLIFEKF; listed as Homo sapiens) [compound 281] | +++ (50%-69% = +++)
 | ++ (20%-49% = ++) | 151 (SVLDSTAKV; listed as Homo sapiens) [compound 151] | ++ (20%-49% = ++)
